From PMC6410080 (Viruses, 2019) come the findings set out here.

One data set concerns SFV. The data set can be described thus: microbe, parasite or virus in culture. Format: cell-based, Semliki Forest virus. The note with it: for inhibition at 10 µM / IC50: Semliki Forest virus; for inhibition at 10 µM: M-HeLa, read-out: % inhibition (SFV screen); for IC50: HeLa Kyoto.
In a further data set the test system is DENV-2. Description: DENV-2 infection assay / secondary screen (E protein staining). Format: cell-based, dengue virus serotype 2. The note with it: Dengue virus, DENV2, Huh-7, 24 h, read-out: % inhibition (DENV-2 screen).
Data set [1] deals with HeLa Kyoto cells. The following applies: human, 10 µM.
Data set [2] is described as follows: in vitro. The note with it: human.
A short description of data set [3]: in vitro. The note with it: human. This is another data set of the same source.
In data set [4] the test system is HeLa Kyoto cells. The following applies: human.

Counter-ions that a name gives are not always drawn. Like-named read-outs stand apart in the source and are kept apart here. Where only a bound is given, the exact number is not on record here.

Broadly, the inhibition is the drop in the measured response relative to a control, in per cent. In general, viability refers to a read-out of living cells in per cent, often relative to untreated cells. What is called IC50 is the concentration that gives 50% inhibition.

Consider `Nc1ncn([C@@H]2O[C@H](CO)[C@@H](O)[C@H]2O)c(=O)n1` [5-azacytidine], for which, in the data set with SFV (10 µM), the “% inhibition (SFV screen)” value is recorded as 101.05%. Further, the inhibition at 10 µM in the data set on SFV (7 h) is 99.8%; in the data set with DENV-2, 9.67%. Moreover, the “% viability (SFV screen)” value with HeLa Kyoto cells [1] was 75.30%. Also, the viability at 10 µM in the data set “in vitro [2]” (% viability (SFV screen)) stood at 75.5%; in the data set “in vitro [3]”, 106%.
`Nc1ncnc2c1ncn2[C@@H]1O[C@H](COP(=O)(O)O)[C@@H](O)[C@H]1O` [Adenosine 5'-monophosphate monohydrate]: the values for the inhibition at 10 µM in the data set on SFV (7 h) and in the data set with DENV-2 were 73.4% and -177%, respectively. The viability at 10 µM in the data set “in vitro [2]” (% viability (SFV screen)) came to 86.8%; in the data set “in vitro [3]”, 105%.
Turning to `Nc1c2ccccc2nc2ccccc12` [Aminacrine], the inhibition at 10 µM in the data set with SFV (7 h) amounted to 89.2%. The values for the viability at 10 µM in the data set “in vitro [2]” (% viability (SFV screen)) and in the data set “in vitro [3]” were 87.4% and 23.3%, respectively.
With `[H]/N=C(\N/C(=N/[H])NCCCCCCNC(=N)NC(=N)Nc1ccc(Cl)cc1)Nc1ccc(Cl)cc1` [Chlorhexidine], in the data set on SFV (7 h), the inhibition at 10 µM worked out at 96.6%. In addition, the viability at 10 µM in the data set “in vitro [2]” (% viability (SFV screen)) was determined as 96.2%; in “in vitro [3]”, 16.6%.
On to `CCN(CC)CCOc1ccc(C(=C(Cl)c2ccccc2)c2ccccc2)cc1` [Clomiphene, Clomiphene citrate (Z,E)], for which the values for the inhibition at 10 µM with SFV (7 h) and in the data set with DENV-2 were 77.8% and 99.3%, respectively. The “TC50 SFV (7h)” value with HeLa Kyoto cells [4] worked out at 27400 µM. Further, the viability at 10 µM in the data set “in vitro [2]” (% viability (SFV screen)) is 97.1%; in the data set “in vitro [3]”, 41.8%.
Take `C[C@@H]1C[C@@H]([C@H](O)CC2CC(=O)NC(=O)C2)C(=O)[C@@H](C)C1` [Cycloheximide]: the values for the inhibition at 10 µM with SFV (7 h) and in the data set with DENV-2 were 99.9% and 64.5%, respectively. In addition, in the data set “in vitro [2]”, the viability at 10 µM worked out at 94%. For the same compound, in “in vitro [3]”, the viability at 24 h, 10 µM was determined as 60.1%.
Consider `Nc1ccn([C@@H]2O[C@H](CO)[C@@H](O)C2(F)F)c(=O)n1` [Gemcitabine], for which the figures for the inhibition at 10 µM in the data set with SFV (7 h) and with DENV-2 were 67% and -137%, respectively. For the same compound, the viability at 10 µM in “in vitro [2]” (% viability (SFV screen)) is 102%; in “in vitro [3]”, 61.8%.
`CCCCN(CCCC)CCC(O)c1cc2c(Cl)cc(Cl)cc2c2cc(C(F)(F)F)ccc12` (stereo not drawn) [Halofantrine, Halofantrine hydrochloride]: the IC50 was 116 µM with SFV (7 h, read-out: IC50 SFV) and over 100 µM with SFV (read-out: IC50 SFV (7 h)). The results for the inhibition at 10 µM in the data set on SFV (7 h) and with DENV-2 were 102% and 83.6%, respectively. The “TC50 SFV (7h)” value in the data set on HeLa Kyoto cells [4] was 290400 µM. For the same compound, the viability at 10 µM came to 96.9% in “in vitro [2]” (% viability (SFV screen)) and 89.4% in “in vitro [3]”.
Take `Clc1cc(Cl)c(OCC#CI)cc1Cl` [Haloprogin]: the inhibition at 10 µM in the data set with SFV (7 h) stood at 99.8%; with DENV-2 it was 1.64%. For the same compound, the viability at 10 µM amounted to 75.4% in “in vitro [2]” (% viability (SFV screen)) and 104% in the data set “in vitro [3]”.
The matching figures for `c1ccc2c(c1)OCC(C1=NCCN1)O2` (stereo not drawn) [Idazoxan hydrochloride]: 94.5%, 48.8%, 67.6% and 71.2%.
In the case of `CN[C@@H]1C[C@@H](c2ccc(Cl)c(Cl)c2)c2ccccc21` [Indatraline hydrochloride], in the data set on SFV (7 h), the inhibition at 10 µM was determined as 72.2%. In addition, the viability at 10 µM worked out at 76.4% in the data set “in vitro [2]” (% viability (SFV screen)) and 1.66% in “in vitro [3]”.
As for `CCOC(=O)C1=C(C)NC(C)=C(C(=O)OCC)C1c1ccccc1/C=C/C(=O)OC(C)(C)C` [Lacidipine], in the data set with SFV (7 h, read-out: IC50 SFV), the IC50 came to 23.7 µM. Further, the values for the inhibition at 10 µM in the data set on SFV (7 h) and in the data set with DENV-2 were 79.8% and 98%, respectively. Moreover, the “TC50 SFV (7h)” value in the data set on HeLa Kyoto cells [4] (7 h) stood at 27700 µM. For the same compound, the viability at 10 µM in “in vitro [2]” (% viability (SFV screen)) was 80.6%; in the data set “in vitro [3]” it was 75.7%.
Regarding `OC(c1cc(C(F)(F)F)nc2c(C(F)(F)F)cccc12)C1CCCCN1` (stereo not drawn) [Mefloquine hydrochloride], the inhibition at 10 µM in the data set with SFV (7 h) was 94.3%; in the data set with DENV-2, -22.1%. Also, the viability at 10 µM was determined as 72.7% in “in vitro [2]” (% viability (SFV screen)) and 7.25% in the data set “in vitro [3]”.
For the compound `CSc1ccc2c(c1)C(N1CCN(C)CC1)Cc1ccccc1S2` (stereo not drawn) [Methiothepin mesylate], the inhibition at 10 µM in the data set with SFV (7 h) was 84%. Also, the viability at 10 µM in “in vitro [2]” (% viability (SFV screen)) was found to be 66.6%; in “in vitro [3]” it was 0.1%.
In the case of `C1CCC(C(CC2CCCCN2)C2CCCCC2)CC1` (stereo not drawn) [Perhexiline maleate], in the data set on SFV (7 h), the inhibition at 10 µM was found to be 101%. The values for the viability at 10 µM in “in vitro [2]” (% viability (SFV screen)) and in the data set “in vitro [3]” were 62.9% and 1.42%, respectively.
Turning to `CN1CCN(CCCN2c3ccccc3Sc3ccc(Cl)cc32)CC1` [Prochloperazine, Prochlorperazine dimaleate], the figures for the inhibition at 10 µM with SFV (7 h) and in the data set on DENV-2 were 73.3% and 98.9%, respectively. Besides, in the data set with HeLa Kyoto cells [4], the “TC50 SFV (7h)” value stood at 22700 µM. Moreover, the values for the viability at 10 µM in “in vitro [2]” (% viability (SFV screen)) and in “in vitro [3]” were 84% and 46.7%, respectively.
Take `O=C1NCCN1CCN1CCC(c2cn(-c3ccc(F)cc3)c3ccc(Cl)cc23)CC1` [Sertindole]: in the data set with SFV (7 h), the inhibition at 10 µM is 67.2%. The viability at 10 µM in “in vitro [2]” (% viability (SFV screen)) amounted to 105%; in the data set “in vitro [3]”, 26.6%.
Take `CC/C(=C(\c1ccccc1)c1ccc(OCCN(C)C)cc1)c1ccccc1` [Tamoxifen citrate]: in the data set on SFV (7 h), the inhibition at 10 µM came out at 98.3%. In addition, the viability at 10 µM in the data set “in vitro [2]” (% viability (SFV screen)) stood at 61.7%.
On to `C/C=C(/C)C(=O)O[C@H]1C(C)=C2[C@H]([C@@H]1OC(=O)CCCCCCC)[C@@](C)(OC(C)=O)C[C@H](OC(=O)CCC)[C@@]1(O)[C@H]2OC(=O)[C@@]1(C)O` [Thapsigargin], for which the values for the inhibition at 10 µM in the data set with SFV (7 h) and in the data set with DENV-2 were 83.4% and 98%, respectively. Moreover, the values for the viability at 10 µM in “in vitro [2]” (% viability (SFV screen)) and in the data set “in vitro [3]” were 103% and 53.3%, respectively.
For `CSc1ccc2c(c1)N(CCC1CCCCN1C)c1ccccc1S2` (stereo not drawn) [Thioridazine hydrochloride], the inhibition at 10 µM in the data set on SFV (7 h) is 89.1%. The viability at 10 µM in “in vitro [2]” (% viability (SFV screen)) turned out to be 71.3%; in “in vitro [3]” it was 5.89%.
The matching figures for `C=C(NC(=O)C(=C)NC(=O)c1csc(C2=N[C@@H]3c4csc(n4)[C@H]4NC(=O)c5csc(n5)[C@H]([C@](C)(O)[C@@H](C)O)NC(=O)[C@H]5CSC(=N5)/C(=C/C)NC(=O)[C@H]([C@@H](C)O)NC(=O)c5csc(n5)[C@]3(CC2)NC(=O)[C@H](C)NC(=O)C(=C)NC(=O)[C@H](C)NC(=O)[C@H]([C@@H](C)CC)N[C@@H]2C=Cc3c([C@H](C)O)cc(nc3[C@H]2O)C(=O)O[C@@H]4C)n1)C(N)=O` [Thiostrepton]: 65.9%, 88.5% and 18.7%.
As for `Cc1ccc(S(=O)(=O)NC(=O)NN2CCCCCC2)cc1` [Tolazamide], the results for the inhibition at 10 µM in the data set with SFV (7 h) and in the data set with DENV-2 were 101% and 36.5%, respectively. Besides, the viability at 10 µM in the data set “in vitro [2]” (% viability (SFV screen)) came out at 113%; in “in vitro [3]” it was 116%.
Take `CN1CCN(CCCN2c3ccccc3Sc3ccc(C(F)(F)F)cc32)CC1` [Trifluoperazine dihydrochloride]: the inhibition at 10 µM in the data set with SFV (7 h) worked out at 96.5%. The viability at 10 µM in “in vitro [2]” (% viability (SFV screen)) stood at 93.9%; in the data set “in vitro [3]” it was 0.13%.
